Values after ≈ are worked out from the molar mass of the structure shown. Active and inactive are the calls of the source. No cut-off for these calls is given here. Residues, ends and D or L forms follow the SMILES beside them. *: point of attachment. Myristoyl = CCCCCCCCCCCCCC(=O)*; Lauroyl = CCCCCCCCCCCC(=O)*
Legend:
[1] = test system: Staphylococcus epidermidis; experiment: Antimicrobial activity against Staphylococcus epidermidis ATCC 12228 at 0.5 times MIC after 15 passages by broth microdilution method; type: functional, organism-based
Staphylococcus aureus [2] = experiment: Antimicrobial activity against ciprofloxacin-resistant Staphylococcus aureus ATCC 25923 at 0.5 to 8 uM measured after 18 hrs in presence of EtBr by checkerboard assay; type: functional, organism-based; details: dose 0.5-8 µM
Staphylococcus aureus [3] = experiment: Antibiofilm activity against Staphylococcus aureus ATCC 25923 preformed biofilm at 32 to 64 uM after 24 hrs by LIVE/DEAD (SYTO-9/PI) staining based confocal laser scanning microscopic analysis; type: functional, organism-based; details: dose 32-64 µM
Staphylococcus aureus [4] = experiment: Antibiofilm activity against Staphylococcus aureus ATCC 25923 assessed as reduction in biofilm thickness after 24 hrs using LIVE/LEAD (SYTO-9/PI) staining by confocal laser scanning microscopy based 3D image analysis; type: functional, organism-based; details: dose 4-8 µM
Staphylococcus aureus [5] = experiment: Antimicrobial activity against methicillin-resistant Staphylococcus aureus 75 measured after 18 hrs in presence of polymyxin B by checkerboard assay; type: functional, organism-based
Staphylococcus aureus [6] = experiment: Antibiofilm activity against Staphylococcus aureus ATCC 25923 assessed as biofilm thickness at 4 uM after 24 hrs using LIVE/LEAD (SYTO-9/PI) staining by confocal laser scanning microscopy based 3D image analysis (reference value: 55 micrometer); type: functional
Staphylococcus aureus [7] = experiment: Potentiation of ciprofloxacin-induced antimicrobial activity against ciprofloxacin-resistant Staphylococcus aureus ATCC 25923 at 1 uM after 18 hrs by broth microdilution method; type: functional, organism-based
[8] = test system: Staphylococcus epidermidis; experiment: Antimicrobial activity against Staphylococcus epidermidis ATCC 12228 after 18 hrs by broth microdilution method; type: functional
Staphylococcus aureus [9] = experiment: Antimicrobial activity against Staphylococcus aureus ATCC 25923 after 18 hrs in presence of NaCl by broth microdilution method; type: functional
Staphylococcus aureus [10] = experiment: Antimicrobial activity against ciprofloxacin-resistant Staphylococcus aureus ATCC 25923 at 0.5 to 8 uM measured after 18 hrs in presence of ciprofloxacin by checkerboard assay; type: functional, organism-based; details: dose 0.5-8 µM
[11] = test system: Staphylococcus epidermidis; experiment: Antimicrobial activity against Staphylococcus epidermidis ATCC 12228 after 18 hrs in presence of polymyxin B by checkerboard assay; type: functional, organism-based
Staphylococcus aureus [12] = experiment: Antimicrobial activity against Staphylococcus aureus ATCC 25923 after 18 hrs in presence of MgCl2 by broth microdilution method; type: functional
Staphylococcus aureus [13] = experiment: Antimicrobial activity against Staphylococcus aureus ATCC 25923 after 18 hrs by broth microdilution method; type: functional
[14] = test system: Staphylococcus epidermidis; experiment: Antimicrobial activity against ciprofloxacin-resistant Staphylococcus epidermidis ATCC 12228 at 0.5 times MIC after 15 passages by broth microdilution method; type: functional, organism-based
Staphylococcus aureus [15] = experiment: Antimicrobial activity against ciprofloxacin-resistant Staphylococcus aureus ATCC 25923 at 0.5 times MIC after 15 passages by broth microdilution method; type: functional, organism-based
Staphylococcus aureus [16] = experiment: Antimicrobial activity against Staphylococcus aureus ATCC 25923 after 18 hrs in presence of CaCl2 by broth microdilution method; type: functional
Staphylococcus aureus [17] = experiment: Potentiation of ciprofloxacin-induced antimicrobial activity against Staphylococcus aureus ATCC 25923 at 0.5 times MIC after 15 passages by broth microdilution method; type: functional, organism-based
[18] = test system: Staphylococcus epidermidis; experiment: Potentiation of ciprofloxacin-induced antimicrobial activity against ciprofloxacin-resistant Staphylococcus epidermidis ATCC 12228 assessed as change in ciprofloxacin MIC at 4 uM after 18 hrs by broth microdilution method relative to ciprofloxacin MIC; type: functional
Staphylococcus aureus [19] = experiment: Antimicrobial activity against Staphylococcus aureus ATCC 25923 after 18 hrs in presence of FeCl3 by broth microdilution method; type: functional
Staphylococcus aureus [20] = experiment: Antibiofilm activity against ciprofloxacin-resistant Staphylococcus aureus ATCC 25923 at 0.5 to 8 uM after 24 hrs in presence of ciprofloxacin by checkerboard assay; type: functional, organism-based; details: dose 0.5-8 µM
Staphylococcus aureus [21] = experiment: Induction of nucleic acid leakage in Staphylococcus aureus ATCC 25923 at 4 times MIC; type: functional
[22] = Binding affinity to LTA (unknown origin) assessed as bacterial killing at 2 times MIC preincubated for 1 hr followed by Staphylococcus aureus ATCC 25923 addition and measured after 2 hrs by colony counting method; details: time 3.0 hrs
Staphylococcus aureus [23] = experiment: Potentiation of ciprofloxacin-induced antimicrobial activity against methicillin-resistant Staphylococcus aureus 75 at 0.5 uM after 18 hrs by broth microdilution method; type: functional, organism-based
Staphylococcus aureus [24] = experiment: Antibiofilm activity against Staphylococcus aureus ATCC 25923 at 0.5 to 8 uM after 24 hrs in presence of ciprofloxacin by checkerboard assay; type: functional, organism-based; details: dose 0.5-8 µM
Staphylococcus aureus [25] = experiment: Antimicrobial activity against methicillin-resistant Staphylococcus aureus 75 after 18 hrs by broth microdilution method; type: functional
[26] = test system: Staphylococcus epidermidis; experiment: Antimicrobial activity against ciprofloxacin-resistant Staphylococcus epidermidis ATCC 12228 after 18 hrs by broth microdilution method; type: functional, organism-based
Staphylococcus aureus [27] = experiment: Antimicrobial activity against ciprofloxacin-resistant Staphylococcus aureus ATCC 25923 after 18 hrs in presence of polymyxin B by checkerboard assay; type: functional, organism-based
Staphylococcus aureus [28] = experiment: Antibiofilm activity against Staphylococcus aureus ATCC 25923 preformed biofilm assessed as reduction in preformed biofilm thickness after 24 hrs using LIVE/LEAD (SYTO-9/PI) staining by confocal laser scanning microscopy based 3D image analysis; type: functional, organism-based; details: dose 32-64 µM
Staphylococcus aureus [29] = experiment: Potentiation of ciprofloxacin-induced antimicrobial activity against ciprofloxacin-resistant Staphylococcus aureus ATCC 25923 assessed as ciprofloxacin MIC at 0.5 times MIC after 15 passages by broth microdilution method; type: functional
Cell membrane [30] = experiment: Induction of membrane disruption in Staphylococcus aureus ATCC 25923 assessed as increase in non-uniform cell debris level at 4 times MIC measured after 2 to 4 hrs by SEM analysis; type: subcellular; details: time 2-4 hrs
[31] = Therapeutic index, ratio of MHC for mouse RBC to geometric mean of peptide MIC for Staphylococcus epidermidis ATCC 12228; type: toxicity; details: pooled result: one value given for 6 cell lines, strains, targets or settings, read-out: TI
Staphylococcus aureus [32] = experiment: Antimicrobial activity against Staphylococcus aureus ATCC 25923 after 18 hrs in presence of polymyxin B by checkerboard assay; type: functional, organism-based
Cell membrane [33] = experiment: Induction of membrane disruption in Staphylococcus aureus ATCC 25923 assessed as PI-positive cells at 2 times MIC measured after 2 hrs by propidium iodide staining based flow cytometry relative to control
Staphylococcus aureus [34] = experiment: Antimicrobial activity against Staphylococcus aureus ATCC 25923 after 18 hrs in presence of 10% serum by broth microdilution method; type: functional
Staphylococcus aureus [35] = experiment: Antimicrobial activity against Staphylococcus aureus ATCC 25923 after 18 hrs in presence of ZnCl2 by broth microdilution method; type: functional
Staphylococcus aureus [36] = experiment: Antimicrobial activity against Staphylococcus aureus ATCC 25923 after 18 hrs in presence of KCl by broth microdilution method; type: functional
Staphylococcus aureus [37] = experiment: Antibiofilm activity against Staphylococcus aureus ATCC 25923 preformed biofilm assessed as preformed biofilm thickness at 32 uM after 24 hrs using LIVE/LEAD (SYTO-9/PI) staining by confocal laser scanning microscopy based 3D image analysis (reference value: 56 micrometer); type: functional
Lipopolysaccharide (LPS) = experiment: Binding affinity to LPS (unknown origin) assessed as bacterial killing at 2 times MIC preincubated for 1 hr followed by Staphylococcus aureus ATCC 25923 addition and measured after 2 hrs by colony counting method; details: time 3.0 hrs

Row | SMILES | Activity [1] | Activity (Staphylococcus aureus [2]) | Activity (Staphylococcus aureus [3]) | Activity (Staphylococcus aureus [4]) | Activity (Staphylococcus aureus [5]) | Activity (Staphylococcus aureus [6]) [um] | Activity (Staphylococcus aureus [7]) | MIC [8] [µM] | MIC (Staphylococcus aureus [9]) [µM] | Activity (Staphylococcus aureus [10]) | Activity [11] | MIC (Staphylococcus aureus [12]) [µM] | MIC (Staphylococcus aureus [13]) [µM] | Activity [14] | Activity (Staphylococcus aureus [15]) | MIC (Staphylococcus aureus [16]) [µM] | Activity (Staphylococcus aureus [17]) | fold change (FC) [18] | MIC (Staphylococcus aureus [19]) [µM] | Activity (Staphylococcus aureus [20]) | also measured
1 | CCCCCCCCCCCCCC(=O)N[C@@H](CCCNC(=N)N)C(=O)N[C@@H](Cc1c[nH]c2ccccc12)C(=O)N[C@@H](Cc1c[nH]c2ccccc12)C(N)=O (Myristoyl-Arg-Trp-Trp-NH2) | Active | Active | Active | Dose-dependent effect | Active | 30 | inactive | 16 (≈ 12.1 µg/mL) | 8 | Active | Active | 4 | 8 (≈ 6.05 µg/mL) | Active | Active | 8 | Active | 2 | 8 | Active | Activity (Staphylococcus aureus [21]): inactive; Activity [22]: Active; Activity (Staphylococcus aureus [23]): inactive; Activity (Staphylococcus aureus [24]): inactive; MIC (Staphylococcus aureus [25]): 4 µM (≈ 3.02 µg/mL); Activity [26]: Active; Activity (Staphylococcus aureus [27]): Active; Activity (Staphylococcus aureus [28]): Dose-dependent effect; MIC (Staphylococcus aureus [29]): 8 µM; Activity (Cell membrane [30]): Active; selectivity ratio [31]: 56.9; Activity (Staphylococcus aureus [32]): Active; Activity (Cell membrane [33]): 74.8%; MIC (Staphylococcus aureus [34]): 16 µM; MIC (Staphylococcus aureus [35]): 8 µM; MIC (Staphylococcus aureus [36]): 8 µM; Activity (Staphylococcus aureus [37]): 40 um; Activity (Lipopolysaccharide (LPS)): Active
2 | CCCCCCCCCCCC(=O)N[C@@H](CCCNC(=N)N)C(=O)N[C@@H](CCCNC(=N)N)C(=O)N[C@@H](Cc1c[nH]c2ccccc12)C(N)=O (Lauroyl-Arg-Arg-Trp-NH2) | Active | Active | Active | Dose-dependent effect | Active | 24 | inactive | 4 (≈ 2.79 µg/mL) | 16 | Active | Active | 8 | 4 (≈ 2.79 µg/mL) | Active | Active | 16 | Active | 2 | 4 | Active | Activity (Staphylococcus aureus [21]): inactive; Activity [22]: Active; Activity (Staphylococcus aureus [23]): inactive; Activity (Staphylococcus aureus [24]): inactive; MIC (Staphylococcus aureus [25]): 4 µM (≈ 2.79 µg/mL); Activity [26]: Active; Activity (Staphylococcus aureus [27]): Active; Activity (Staphylococcus aureus [28]): Dose-dependent effect; MIC (Staphylococcus aureus [29]): 8 µM; Activity (Cell membrane [30]): Active; selectivity ratio [31]: 34.9; Activity (Staphylococcus aureus [32]): Active; Activity (Cell membrane [33]): 44.3%; MIC (Staphylococcus aureus [34]): 64 µM; MIC (Staphylococcus aureus [35]): 8 µM; MIC (Staphylococcus aureus [36]): 8 µM; Activity (Staphylococcus aureus [37]): 30 um; Activity (Lipopolysaccharide (LPS)): Active

Reference: ChEMBL document CHEMBL4706653, “Ultra-short lipopeptides against gram-positive bacteria while alleviating antimicrobial resistance” (Eur J Med Chem, 2021)
